From US8378117B2 (priority 2005, dated 2013)

What was measured:
CB1 receptor = biological target: T1, CB1 receptor (Homo sapiens, UniProt P21554); assay: Binding assay for CB1 agonists or inverse agonists (SK-N-MC membranes, [3H]-CP-55,940); conditions: for inhibition at 0.2 µM: read-out: CB1 receptor binding percent inhibition, test concentration 0.2 μM (footnote 2); for inhibition at 1 µM: read-out: CB1 receptor binding percent inhibition, test concentration 1 μM (footnote 1); for IC50: Cannabinoid CB1 Receptor Binding IC50, calculated by linear regression from percent inhibition at various test concentrations
T1 construct: expressed in transfected cells
Method in brief: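 Membranes from SK-N-MC cells stably expressing human CB1 incubated with compound and [3H]-CP-55,940 ([…]) for 90 min at 30° C in Tris-HCl pH 7.5, MgCl2, EDTA, fatty-acid-free BSA. Non-specific binding defined with 10 uM WIN 55,212; filtration, scintillation count; IC50 by linear regression.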

CB2 receptor = biological target: T2, CB2 receptor (Homo sapiens, UniProt P34972); assay: Binding assay for CB2 agonists or inverse agonists (SK-N-MC membranes, [3H]-CP-55,940); conditions: for inhibition at 0.2 µM: read-out: CB2 receptor binding percent inhibition
T2 construct: expressed in transfected cells
Method in brief: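 Membranes from SK-N-MC cells stably expressing human CB2 were incubated with radioligand and test compounds for 90 min at 30 °C in Tris-HCl buffer, pH 7.5, with MgCl2, EDTA and fatty-acid-free BSA. Filter-bound radioactivity was counted; IC50 was derived by linear regression of percent inhibition.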

[1] = test concentration 0.2 μM (footnote 2)

T2 sequence (P34972 whole entry): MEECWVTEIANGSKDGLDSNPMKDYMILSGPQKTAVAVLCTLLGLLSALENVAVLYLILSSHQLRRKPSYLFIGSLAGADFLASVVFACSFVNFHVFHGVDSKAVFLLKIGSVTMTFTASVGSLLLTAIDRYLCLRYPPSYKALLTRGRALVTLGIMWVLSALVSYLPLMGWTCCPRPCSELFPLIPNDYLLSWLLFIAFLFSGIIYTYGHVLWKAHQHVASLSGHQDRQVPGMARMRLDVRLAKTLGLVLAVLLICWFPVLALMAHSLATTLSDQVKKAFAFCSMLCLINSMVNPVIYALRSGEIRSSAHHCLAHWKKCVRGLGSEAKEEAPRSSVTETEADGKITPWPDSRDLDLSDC
T1 sequence (P21554 whole entry): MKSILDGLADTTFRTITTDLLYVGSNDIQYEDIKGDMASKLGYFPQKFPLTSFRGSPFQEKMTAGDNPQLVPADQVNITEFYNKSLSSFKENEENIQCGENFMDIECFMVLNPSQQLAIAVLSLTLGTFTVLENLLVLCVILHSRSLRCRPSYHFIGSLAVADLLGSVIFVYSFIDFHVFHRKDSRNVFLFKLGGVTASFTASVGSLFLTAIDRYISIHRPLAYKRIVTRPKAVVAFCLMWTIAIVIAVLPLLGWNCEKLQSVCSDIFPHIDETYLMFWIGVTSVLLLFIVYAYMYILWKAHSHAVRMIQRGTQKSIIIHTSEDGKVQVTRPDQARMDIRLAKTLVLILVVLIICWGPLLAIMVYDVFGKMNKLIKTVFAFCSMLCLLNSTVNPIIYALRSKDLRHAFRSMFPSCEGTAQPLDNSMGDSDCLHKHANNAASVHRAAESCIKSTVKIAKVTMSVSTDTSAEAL

SMILES | inhibition at 0.2 µM (CB1 receptor) [%] | inhibition at 1 µM (CB1 receptor) [%] | CB2 receptor binding percent inhibition (CB2 receptor; test concentration not stated) [%] | further results
CC(C)[C@@H](CO)NC(=O)c1nn(-c2ccc(Cl)cc2Cl)c2c1CCCC[C@@H]2Cc1cccc(Cl)c1 [Cpd 158, (8R)-8-(3-chloro-benzyl)-1-(2,4-dichloro-phenyl)-1,4,5,6,7,8-hexahydro-cycloheptapyrazole-3-carboxylic acid [(1S)-1-hydroxymethyl-2-methyl-propyl]-amide] | 14 |  |  | inhibition at 0.2 µM (CB2 receptor; [1]): 0%
COC(=O)[C@@H](Cc1ccc(O)cc1)NC(=O)c1nn(-c2ccc(F)cc2F)c2c1CCCCC2Cc1ccc(F)cc1 (stereo partly drawn) [Cpd 98, (2R)-2-{[1-(2,4-difluoro-phenyl)-8-(4-fluoro-benzyl)-1,4,5,6,7,8-hexahydro-cycloheptapyrazole-3-carbonyl]-amino}-3-(4-hydroxy-phenyl)-propionic acid methyl ester] |  | 51 | 43 | 
COC(=O)[C@@H](Cc1ccc(F)cc1)NC(=O)c1nn(-c2ccc(Cl)cc2Cl)c2c1CCCCC2Cc1cccc(Cl)c1 (stereo partly drawn) [Cpd 103, (2R)-2-{[8-(3-chloro-benzyl)-1-(2,4-dichloro-phenyl)-1,4,5,6,7,8-hexahydro-cycloheptapyrazole-3-carbonyl]-amino}-3-(4-fluoro-phenyl)-propionic acid methyl ester] |  | 76 | 57 | IC50 (CB1 receptor): 300 nM; inhibition at 0.5 µM (CB1 receptor; read-out: CB1 receptor binding percent inhibition, test concentration 0.5 μM (footnote 10)): 56%
CC12CCC(C1)C(C)(C)[C@H]2NC(=O)c1nn(C2CCCCC2)c2c1CCCCC2Cc1ccccc1Cl (stereo partly drawn) [Cpd 11, 8-(2-chloro-benzyl)-1-cyclohexyl-1,4,5,6,7,8-hexahydro-cycloheptapyrazole-3-carboxylic acid [(2S)-1,3,3-trimethyl-bicyclo[2.2.1]hept-2-yl]-amide] |  | 17 | 21 | 
COC(=O)[C@H](Cc1ccc(F)cc1)NC(=O)c1nn(C2CCCCC2)c2c1CCCCC2Cc1ccc(F)cc1 (stereo partly drawn) [Cpd 63, (2S)-2-{[1-cyclohexyl-8-(4-fluoro-benzyl)-1,4,5,6,7,8-hexahydro-cycloheptapyrazole-3-carbonyl]-amino}-3-(4-fluoro-phenyl)-propionic acid methyl ester] |  | 29 | 69 | 
O=C(NC1CCCC1)c1nn(C2CCCCC2)c2c1CCCCC2Cc1cccc(F)c1 (centres unmarked) [Cpd 52, 1-cyclohexyl-8-(3-fluoro-benzyl)-1,4,5,6,7,8-hexahydro-cycloheptapyrazole-3-carboxylic acid cyclopentylamide] |  | 26 | 21 | 
O=C(NC12CC3CC(CC(C3)C1)C2)c1nn(C2CCCCC2)c2c1CCCCC2Cc1ccc(Cl)cc1 (centres unmarked) [Cpd 20, 8-(4-chloro-benzyl)-1-cyclohexyl-1,4,5,6,7,8-hexahydro-cycloheptapyrazole-3-carboxylic acid adamantan-1-ylamide] |  | 4 | 28 | 
CCOC(=O)[C@@H]1C2CCC(C2)[C@@H]1NC(=O)c1nn(C2CCCCC2)c2c1CCCCC2Cc1ccc(F)cc1 (stereo partly drawn) [Cpd 106, (2R,3S)-3-{[1-cyclohexyl-8-(4-fluoro-benzyl)-1,4,5,6,7,8-hexahydro-cycloheptapyrazole-3-carbonyl]-amino}-bicyclo[2.2.1]heptane-2-carboxylic acid ethyl ester] |  | 45 | 95 | 
C[C@H](NC(=O)c1nn(-c2ccc(Cl)cc2Cl)c2c1CCCCC2Cc1ccc(Cl)cc1)c1ccccc1 (stereo partly drawn) [Cpd 76, 8-(4-chloro-benzyl)-1-(2,4-dichloro-phenyl)-1,4,5,6,7,8-hexahydro-cycloheptapyrazole-3-carboxylic acid [(1S)-1-phenyl-ethyl]-amide] |  |  | 38 | CB1 receptor binding average percent inhibition (CB1 receptor; value shown is an average percent inhibition (footnote 5), concentration not given): ^(5)44%
O=C(N[C@@H](CCl)c1ccccc1)c1nn(-c2nccc(C(F)(F)F)n2)c2c1CCCCC2Cc1cccc(Cl)c1 (stereo partly drawn) [Cpd 178, 8-(3-chloro-benzyl)-1-(4-trifluoromethyl-pyrimidin-2-yl)-1,4,5,6,7,8-hexahydro-cycloheptapyrazole-3-carboxylic acid [(1R)-2-chloro-1-phenyl-ethyl]-amide] | 29 |  |  | inhibition at 0.2 µM (CB2 receptor; [1]): 29%
C[C@H](NC(=O)c1n[nH]c2c1CCCC/C2=C\c1ccc(Cl)cc1)C1CCCCC1 [Cpd 143, (8E)-8-(4-chloro-benzylidene)-1,4,5,6,7,8-hexahydro-cycloheptapyrazole-3-carboxylic acid [(1S)-1-cyclohexyl-ethyl]-amide] | 99 |  |  | IC50 (CB1 receptor): 2 nM; inhibition at 0.002 µM (CB1 receptor; read-out: CB1 receptor binding percent inhibition, test concentration 0.002 μM (footnote 11)): 55%; CB1 receptor binding percent inhibition (CB1 receptor; test concentration not stated): 77%; CB2 receptor binding percent inhibition (CB2 receptor; [1]): ^(2)100%
C[C@@H](NC(=O)c1nn(C2CCCCC2)c2c1CCCCC2Cc1ccc(Cl)cc1)c1ccccc1 (stereo partly drawn) [Cpd 6, 8-(4-chloro-benzyl)-1-cyclohexyl-1,4,5,6,7,8-hexahydro-cycloheptapyrazole-3-carboxylic acid [(1R)-1-phenyl-ethyl]-amide] |  | 26 | 4 | 
COC(=O)[C@@H](Cc1ccc(O)cc1)NC(=O)c1nn(-c2ccc(F)cc2F)c2c1CCCCC2Cc1cccc(F)c1 (stereo partly drawn) [Cpd 95, (2R)-2-{[1-(2,4-difluoro-phenyl)-8-(3-fluoro-benzyl)-1,4,5,6,7,8-hexahydro-cycloheptapyrazole-3-carbonyl]-amino}-3-(4-hydroxy-phenyl)-propionic acid methyl ester] |  | 36 | 35 | 
O=C(NC1CC1)c1nn(Cc2ccc(Cl)cc2)c2c1CCCCC2Cc1cccc(Cl)c1 (centres unmarked) [Cpd 35, 1-(4-chloro-benzyl)-8-(3-chloro-benzyl)-1,4,5,6,7,8-hexahydro-cycloheptapyrazole-3-carboxylic acid cyclopropylamide] |  | 22 | 36 | 
O=C(c1nn(-c2cc(Cl)ccc2Cl)c2c1CCCC/C2=C\c1ccc(Cl)cc1)N1CCOCC1 [Cpd 201, (8E)-[8-(4-chloro-benzylidene)-1-(2,5-dichloro-phenyl)-1,4,5,6,7,8-hexahydro-cycloheptapyrazol-3-yl]-morpholin-4-yl-methanone] | 11 |  |  | inhibition at 0.2 µM (CB2 receptor; [1]): 0%
O=C(N[C@H](CO)Cc1ccc(O)cc1)c1n[nH]c2c1CCCC/C2=C\c1cccc(Cl)c1 [Cpd 246, (8E)-(2S)-8-(3-chloro-benzylidene)-1,4,5,6,7,8-hexahydro-cycloheptapyrazole-3-carboxylic acid [1-hydroxymethyl-2-(4-hydroxy-phenyl)-ethyl]-amide] | 0 |  |  | inhibition at 0.2 µM (CB2 receptor; [1]): 15%
O=C(NC1C2CC3CC(C2)CC1C3)c1nn(C2CCCCC2)c2c1CCCCC2Cc1cccc(Cl)c1 (centres unmarked) [Cpd 12, 8-(3-chloro-benzyl)-1-cyclohexyl-1,4,5,6,7,8-hexahydro-cycloheptapyrazole-3-carboxylic acid adamantan-2-ylamide] |  | 36 | 31 | 
O=C(NN1CCCCC1)c1nn(-c2cc(Cl)ccc2Cl)c2c1CCCC/C2=C\c1ccc(Cl)cc1 [Cpd 199, (8E)-8-(4-chloro-benzylidene)-1-(2,5-dichloro-phenyl)-1,4,5,6,7,8-hexahydro-cycloheptapyrazole-3-carboxylic acid piperidin-1-ylamide] | 30 |  |  | inhibition at 0.2 µM (CB2 receptor; [1]): 30%
